Measured values published in patent US10280170B2, “Substituted 4,5,6,7-tetrahydro-pyrazolo[1,5-a]pyrazine derivatives and 5,6,7,8-tetrahydro-4H-pyrazolo[1,5-a][1,4]diazepine derivatives as Ros1 inhibitors” (Janssen Pharmaceutica NV, priority 2014, dated 2019).
Read-outs that look alike come from different tables or passages of the source.

How the values were obtained:
[1] = target: T1, Ros1 enzyme (Homo sapiens, UniProt P08922); assay: Ros1 enzymatic assay; format: biochemical
T1 construct: 0.5 μg/ml Ros1 enzyme
T1 sequence (P08922 28-2347): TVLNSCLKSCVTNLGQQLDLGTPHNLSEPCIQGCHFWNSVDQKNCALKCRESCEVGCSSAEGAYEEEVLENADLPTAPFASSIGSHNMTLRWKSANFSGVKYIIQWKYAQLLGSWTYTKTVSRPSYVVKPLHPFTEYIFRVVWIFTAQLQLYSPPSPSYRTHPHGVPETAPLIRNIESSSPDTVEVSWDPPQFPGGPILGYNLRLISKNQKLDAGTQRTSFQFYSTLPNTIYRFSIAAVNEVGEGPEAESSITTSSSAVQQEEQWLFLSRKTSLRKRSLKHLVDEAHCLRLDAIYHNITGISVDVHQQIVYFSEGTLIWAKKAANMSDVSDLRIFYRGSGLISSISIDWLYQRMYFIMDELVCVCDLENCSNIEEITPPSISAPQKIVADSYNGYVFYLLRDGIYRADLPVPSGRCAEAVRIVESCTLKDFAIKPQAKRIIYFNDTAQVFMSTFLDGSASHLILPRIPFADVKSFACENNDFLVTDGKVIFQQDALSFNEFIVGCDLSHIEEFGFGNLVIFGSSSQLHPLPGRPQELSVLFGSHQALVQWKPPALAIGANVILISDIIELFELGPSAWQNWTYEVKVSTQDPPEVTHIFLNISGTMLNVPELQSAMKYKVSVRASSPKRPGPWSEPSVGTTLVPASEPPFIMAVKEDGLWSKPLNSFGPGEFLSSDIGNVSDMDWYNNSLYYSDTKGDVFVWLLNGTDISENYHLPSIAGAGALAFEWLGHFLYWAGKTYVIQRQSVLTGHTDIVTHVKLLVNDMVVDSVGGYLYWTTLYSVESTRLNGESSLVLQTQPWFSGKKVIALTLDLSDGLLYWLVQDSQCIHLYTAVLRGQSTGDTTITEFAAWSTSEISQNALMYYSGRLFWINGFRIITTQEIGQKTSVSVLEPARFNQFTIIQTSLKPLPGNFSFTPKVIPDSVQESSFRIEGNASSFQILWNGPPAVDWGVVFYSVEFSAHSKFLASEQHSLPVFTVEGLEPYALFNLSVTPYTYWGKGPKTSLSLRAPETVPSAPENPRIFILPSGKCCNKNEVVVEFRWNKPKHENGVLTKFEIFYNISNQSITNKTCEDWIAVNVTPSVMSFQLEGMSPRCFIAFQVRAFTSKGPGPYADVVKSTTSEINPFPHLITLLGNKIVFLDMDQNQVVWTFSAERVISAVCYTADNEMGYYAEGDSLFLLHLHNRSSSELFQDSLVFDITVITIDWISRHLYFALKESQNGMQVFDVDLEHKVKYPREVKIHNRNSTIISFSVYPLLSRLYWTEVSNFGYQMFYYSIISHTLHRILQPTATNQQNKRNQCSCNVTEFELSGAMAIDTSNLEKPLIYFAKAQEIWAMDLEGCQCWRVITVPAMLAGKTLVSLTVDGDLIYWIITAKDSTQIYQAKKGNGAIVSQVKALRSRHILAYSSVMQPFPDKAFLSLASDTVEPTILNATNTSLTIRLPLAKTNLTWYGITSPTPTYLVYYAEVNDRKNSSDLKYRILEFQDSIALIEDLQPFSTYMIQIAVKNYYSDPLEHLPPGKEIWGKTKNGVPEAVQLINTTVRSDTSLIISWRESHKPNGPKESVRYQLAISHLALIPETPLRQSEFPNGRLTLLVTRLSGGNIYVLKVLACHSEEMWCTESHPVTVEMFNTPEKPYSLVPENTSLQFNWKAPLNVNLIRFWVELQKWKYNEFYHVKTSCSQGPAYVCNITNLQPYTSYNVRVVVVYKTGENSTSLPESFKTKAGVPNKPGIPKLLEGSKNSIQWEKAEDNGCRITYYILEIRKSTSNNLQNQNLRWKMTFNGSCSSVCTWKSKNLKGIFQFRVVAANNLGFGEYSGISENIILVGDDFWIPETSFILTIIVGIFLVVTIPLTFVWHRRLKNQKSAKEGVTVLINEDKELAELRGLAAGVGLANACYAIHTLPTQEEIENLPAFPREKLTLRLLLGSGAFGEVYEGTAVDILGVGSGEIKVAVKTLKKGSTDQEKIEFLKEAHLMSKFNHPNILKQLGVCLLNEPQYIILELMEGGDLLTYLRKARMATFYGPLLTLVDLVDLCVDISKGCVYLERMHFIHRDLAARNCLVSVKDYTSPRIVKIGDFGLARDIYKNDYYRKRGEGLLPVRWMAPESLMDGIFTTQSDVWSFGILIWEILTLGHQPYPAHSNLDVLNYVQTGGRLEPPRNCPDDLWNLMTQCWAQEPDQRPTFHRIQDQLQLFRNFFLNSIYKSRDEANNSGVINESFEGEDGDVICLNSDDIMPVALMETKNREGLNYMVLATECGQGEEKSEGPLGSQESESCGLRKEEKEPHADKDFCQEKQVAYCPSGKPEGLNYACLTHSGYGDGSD
Procedure, shortened: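 Radiometric proximity read-out: 33P incorporated into IRS-Tide captured on streptavidin imaging beads and imaged on LEADseeker. Phosphorylation ran 120 min at RT with 20 μM ATP (substrate-mix level) in Tris pH7.5/MgCl2/EGTA/Tween buffer; EDTA stop.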

[2] = test system: Ba/F3 cells containing Ros1 wild-type protein + IL-3; assay: Ba/F3-Ros1 cell proliferation counter-screen, wild-type protein in the presence of 10 ng/ml murine IL-3; format: cell-based; conditions: Mus musculus, BaF3, 24 h, read-out: BaF3-ROS1 + IL3 pIC50 (converted)
Procedure, shortened: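 IL-3 rescue counter-screen: WT Ros1 Ba/F3, 10 ng/ml mIL-3, 24 h compound exposure, 37 °C/5% CO2; Alamar Blue added 4 h, RFU ex540/em590.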

[3] = target: T2, Ba/F3 cells containing Ros1 wild-type protein (Homo sapiens, UniProt P08922, cells depend on it, form not given); assay: Ba/F3-Ros1 cell proliferation assay, wild-type Ros1; format: cell-based, murine; conditions: without IL-3
T2 construct: The background only speaks of 'a number of different unrelated proteins' and names SLC34A2-ROS1 for HCC78 cells
T2 sequence (P08922 whole entry, stated change not applied): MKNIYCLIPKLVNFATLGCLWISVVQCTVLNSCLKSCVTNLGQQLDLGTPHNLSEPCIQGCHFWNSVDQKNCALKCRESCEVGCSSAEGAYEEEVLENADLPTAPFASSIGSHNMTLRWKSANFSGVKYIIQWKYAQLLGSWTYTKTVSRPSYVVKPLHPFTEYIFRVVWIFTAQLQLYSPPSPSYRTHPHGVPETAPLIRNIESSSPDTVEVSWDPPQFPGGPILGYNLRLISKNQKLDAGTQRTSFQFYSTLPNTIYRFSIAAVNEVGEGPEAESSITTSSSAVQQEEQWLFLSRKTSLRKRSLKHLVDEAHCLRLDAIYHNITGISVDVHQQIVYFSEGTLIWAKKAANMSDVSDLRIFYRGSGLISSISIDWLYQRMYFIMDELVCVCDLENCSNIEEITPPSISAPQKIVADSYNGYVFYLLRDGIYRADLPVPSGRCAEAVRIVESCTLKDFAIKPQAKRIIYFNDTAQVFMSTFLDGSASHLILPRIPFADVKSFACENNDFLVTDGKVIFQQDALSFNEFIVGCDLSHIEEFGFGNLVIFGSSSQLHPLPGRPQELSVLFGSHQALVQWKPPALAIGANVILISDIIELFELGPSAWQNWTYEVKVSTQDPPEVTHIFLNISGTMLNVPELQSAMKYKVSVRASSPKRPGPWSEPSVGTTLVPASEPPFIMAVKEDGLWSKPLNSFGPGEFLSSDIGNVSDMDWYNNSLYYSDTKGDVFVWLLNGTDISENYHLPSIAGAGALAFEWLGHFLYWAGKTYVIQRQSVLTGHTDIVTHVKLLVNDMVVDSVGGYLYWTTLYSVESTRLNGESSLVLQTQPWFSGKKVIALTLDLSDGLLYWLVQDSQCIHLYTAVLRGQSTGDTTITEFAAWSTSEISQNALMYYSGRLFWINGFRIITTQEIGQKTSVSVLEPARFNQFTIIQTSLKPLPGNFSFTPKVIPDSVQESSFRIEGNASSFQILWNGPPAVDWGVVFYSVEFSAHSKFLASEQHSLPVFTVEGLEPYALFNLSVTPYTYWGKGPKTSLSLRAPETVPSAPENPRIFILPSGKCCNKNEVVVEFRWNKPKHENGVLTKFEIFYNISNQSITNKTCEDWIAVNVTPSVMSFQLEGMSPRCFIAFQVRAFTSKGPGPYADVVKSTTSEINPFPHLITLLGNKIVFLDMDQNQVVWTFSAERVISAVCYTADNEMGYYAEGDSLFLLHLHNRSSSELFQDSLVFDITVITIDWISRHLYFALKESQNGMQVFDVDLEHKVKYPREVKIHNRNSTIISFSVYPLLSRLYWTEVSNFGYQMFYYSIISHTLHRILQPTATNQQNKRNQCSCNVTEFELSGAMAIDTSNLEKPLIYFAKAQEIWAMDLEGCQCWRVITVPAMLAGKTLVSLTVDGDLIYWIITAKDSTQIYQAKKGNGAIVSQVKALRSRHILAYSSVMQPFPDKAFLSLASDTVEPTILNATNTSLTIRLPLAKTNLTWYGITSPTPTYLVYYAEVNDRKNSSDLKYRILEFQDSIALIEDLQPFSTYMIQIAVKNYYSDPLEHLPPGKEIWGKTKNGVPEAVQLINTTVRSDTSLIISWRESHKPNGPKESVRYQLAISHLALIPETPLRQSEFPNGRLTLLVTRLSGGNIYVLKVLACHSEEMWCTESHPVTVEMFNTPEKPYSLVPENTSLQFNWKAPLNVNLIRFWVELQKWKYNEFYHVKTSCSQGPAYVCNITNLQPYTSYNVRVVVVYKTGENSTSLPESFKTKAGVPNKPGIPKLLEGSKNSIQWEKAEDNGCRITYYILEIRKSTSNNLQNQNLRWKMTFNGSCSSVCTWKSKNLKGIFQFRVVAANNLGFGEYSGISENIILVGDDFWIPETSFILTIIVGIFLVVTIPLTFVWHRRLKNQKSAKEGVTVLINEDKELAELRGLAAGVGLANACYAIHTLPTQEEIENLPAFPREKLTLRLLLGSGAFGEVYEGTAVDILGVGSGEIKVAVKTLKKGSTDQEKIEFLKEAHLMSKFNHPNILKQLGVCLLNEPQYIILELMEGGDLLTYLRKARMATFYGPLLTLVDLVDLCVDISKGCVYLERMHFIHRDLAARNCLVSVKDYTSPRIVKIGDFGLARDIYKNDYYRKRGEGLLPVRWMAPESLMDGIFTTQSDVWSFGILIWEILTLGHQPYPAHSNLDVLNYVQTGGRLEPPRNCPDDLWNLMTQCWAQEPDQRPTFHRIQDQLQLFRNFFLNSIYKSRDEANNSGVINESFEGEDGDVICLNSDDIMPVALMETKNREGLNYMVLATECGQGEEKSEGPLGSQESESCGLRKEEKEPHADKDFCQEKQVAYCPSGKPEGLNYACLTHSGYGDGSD
Procedure, shortened: (§1)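 Alamar Blue read-out (resazurin, ex. 540 nm, em. 590 nm, 4 h at 37 °C) after 24 h compound exposure of 20000 Ba/F3-Ros1 cells per well. Cells carry WT, gatekeeper L2026M or crizotinib-resistant G2032R Ros1; medium RPMI-1640, 10% FBS, 2 mM L-Glutamine.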

[4] = target: Ba/F3 cells containing Ros1 with a mutation at the gatekeeper residue (L2026M) (Homo sapiens, UniProt P08922, L2026M, cells depend on it, form not given); assay: Ba/F3-Ros1 cell proliferation assay, L2026M gatekeeper mutant; format: cell-based, murine; conditions: without IL-3
Chain of Ba/F3 cells containing Ros1 with a mutation at the gatekeeper residue (L2026M) (P08922 whole entry L2026M, form open): as the sequence (P08922 whole entry, stated change not applied) above, with L2026M counted along it
Procedure, shortened: as §1

[5] = test system: HCC78 non-small cell lung cancer cells; assay: HCC78 cell proliferation assay; format: cell-based; conditions: for EC50: Homo sapiens, HCC78, 96 h, read-out: HCC-78 PROL pEC50 (converted)
Description: HCC78 Cell Proliferation Assay
Approximately 1000 HCC78 non-small cell lung cancer cells in 180 μl of cell culture medium (RPMI-1640, 10% FBS, 2 mM L-Glutamine, 10 mM Hepes, 1 mM sodium pyruvate, 4.5 g/L glucose, 1.5 g/L sodium bicarbonate, 25 μg/ml Gentamycin) were seeded in each well of a 96-well polystyrene, tissue-culture treated plate and incubated at 37° C. and 5% CO2. After 24 hours, compounds were diluted in cell culture medium from which 20 μl was added to the wells containing cells and incubated for 4 days at 37° C. and 5% CO2. A 5 mg/ml solution of the tetrazolium dye MTT was prepared in PBS (phosphate-buffered saline) and 25 μl was added to each well. After 2 hours the medium was removed and replaced by 125 μL of 4/1 DMSO/glycine buffer (0.1M glycine, 0.1M NaCl, pH 10.5) before absorbance was determined at 538 nm.

[6] = Ros1 enzymatic assay, read-out: ROS1 pIC50 (converted)
[7] = counter-screen, wild-type, 10 ng/ml murine IL-3

Row | Compound | melting point [°C] | IC50 [1, 6] [nM] | CC50 [2] [nM] | BaF3-ROS1-IL3 pIC50 [3] | Ba/F3 Ros1 L2026M (-IL-3) pIC50 [4] | EC50 [5] [nM] | IC50 ([1]; ROS1 pIC50, Ros1 enzymatic assay) [nM] | CC50 [2, 7] [nM] | EC50 ([5]; HCC78 cells, 4 days, MTT) [nM] | HCC-78 PROL pEC50 ([5]; HCC78 cells, 4 days, MTT) | ROS1 pIC50 ([1]; Ros1 enzymatic assay)
1 | CC(C)c1ccc(COc2ncc(-c3c(-c4ccncc4)nn4c3C(=O)NCC4)cn2)cc1 [Compound 75] | 126 | 12.6 | > 10000 | 7.9 | 7.5 | 63.1 |  |  |  |  | 
2 | CC(C)c1ccc(COc2ccc(-c3c(-c4ccncc4)nn4c3C(=O)N(CCS(C)(=O)=O)CC4)cc2)cc1 [Compound 52] | 219 | 50.1 | > 10000 | 7.6 | 6.9 | 251 |  |  |  |  | 
3 | CC(C)c1ccc(COc2ccc(-c3c(-c4ccncc4)nn4c3C(=O)N(CCO)CC4)cc2)cc1C#N [Compound 87] | 160 | 39.8 | > 10000 | 7.3 | 7.2 | 200 |  |  |  |  | 
4 | CC(C)c1ccc(COc2ccc(-c3c(-c4ccncc4)nn4c3C(=O)NCC4)cc2)cc1CCO [Compound 11] | 195 | 10 | > 10000 | 7.7 | 7.8 | 31.6 |  |  |  |  | 
5 | O=C1c2c(-c3ccc(OCc4ccc(C5CC5)cc4)cc3)c(-c3ccncc3)nn2CCN1CCO [Compound 129] | 194 | 63.1 | > 10000 | 7.4 | 7.0 | 100 |  |  |  |  | 
6 | COCC(C)(C)c1ccc(COc2ccc(-c3c(-c4ccncc4)nn4c3C(=O)NCC4)cc2)cc1 [Compound 126] | 212 | 200 | > 10000 | 6.9 | 6.6 | 1260 |  |  |  |  | 
7 | CC(C)c1cc(F)c(COc2ccc(-c3c(-c4ccncc4)nn4c3C(=O)N(CCO)CC4)cc2)c(F)c1 [Compound 94] | 194 | 100 | > 10000 | 7.0 | 6.6 | 398 |  |  |  |  | 
8 | CC(C)c1ccc(CC(=O)c2ccc(-c3c(-c4ccncc4)nn4c3C(=O)NCC4)cc2)cc1 [Compound 148] | 259 | 6310 | > 10000 | 5.5 | 5.9 | 1580 |  |  |  |  | 
9 | CCOP(=O)(CCN1CCn2nc(-c3ccncc3)c(-c3ccc(OCc4ccc(C(C)C)cc4)cc3)c2C1=O)OCC [Compound 68] | 90 |  | 2510 | 6.7 | 6.5 | 2510 | 316 |  |  |  | 
10 | COCCOc1cc(COc2ccc(-c3c(-c4ccncc4)nn4c3C(=O)NCC4)cc2)ccc1C(C)C [Compound 90] | 209 | 79.4 | > 10000 | 7.2 | 7.4 | 158 |  |  |  |  | 
11 | COc1cc(-c2c(-c3ccncc3)nn3c2C(=O)NCC3)cc(OC)c1OCc1ccc(C(C)C)cc1 [Compound 35] | 192 | 5010 | > 10000 | 5.7 | 5.8 | > 10000 |  |  |  |  | 
12 | O=C1c2c(-c3ccc(OCc4ccc(OC(F)(F)F)cc4)cc3)c(-c3ccncc3)nn2CCN1CCO [Compound 117] | 134 | 126 | > 10000 | 7.0 | 6.9 | 251 |  |  |  |  | 
13 | CC(C)c1ccc(COc2ccc(-c3c(-c4ccncc4)nn4c3C(=O)NC(CN(C)CCO)C4)cc2)cc1 (centres unmarked) [Compound 195] | 193 | 126 |  | 6.7 | 7.0 |  |  | > 10000 | 794 |  | 
14 | CC(C)c1ccc(COc2ccc(-c3c(-c4ccncc4F)nn4c3C(=O)NCC4)c(F)c2)cc1 [Compound 152] | 262 | 10 | > 10000 | 8.0 | 8.1 | 63.1 |  |  |  |  | 
15 | CC(C)c1cc(F)c(COc2ccc(-c3c(-c4ccncc4)nn4c3C(=O)N(CC(O)CO)CC4)cc2)cc1F (centres unmarked) [Compound 98] | 184 | 251 |  | 6.8 | 6.6 |  |  | > 10000 |  | 6.5 | 
16 | Cc1cc(-c2c(-c3ccncc3)nn3c2C(=O)NCC3)cc(C)c1OCc1ccc(C(C)C)cc1 [Compound 29] | 260 | > 10000 | > 10000 | <5 | <5 | > 10000 |  |  |  |  | 
17 | CC(C)c1ccc(COc2ccc(-c3c(-c4ccncc4C#N)nn4c3C(=O)NCC4)cc2)cc1 [Compound 153] | 225 | 39.8 | > 10000 | 7.5 | 6.8 | 316 |  |  |  |  | 
18 | CC(C)(CN)c1ccc(COc2ccc(-c3c(-c4ccncc4)nn4c3C(=O)NCC4)cc2)cc1 [Compound 121] | 233 |  |  | 6.3 | 5.9 |  |  | > 10000 | 1000 |  | 
19 | CC(C)c1ccc(COc2ccc(-c3c(-c4ccncc4)nn4c3C(=O)N(C(C)CO)CC4)cc2)cc1 (single isomer, unassigned) [Compound 38] | 144 | 12.6 |  | 7.9 | 7.5 |  |  |  |  | 7.3 | 
20 | CC(C)c1ccc(COc2ccc(-c3c(-c4ccncc4)nn4c3C(=O)N(CC(O)CO)CC4)cc2)cc1 (centres unmarked) [Compound 41] | 191 | 31.6 |  | 7.4 | 6.6 |  |  |  |  | 7.1 | 
21 | CC(O)CN1CCn2nc(-c3ccncc3)c(-c3ccc(OCc4ccc(C(C)C)cc4)cc3)c2C1 (centres unmarked) [Compound 192] | 151 |  |  | 6.9 | 6.9 |  |  |  |  | 6.2 | 6.8
